Measurements reported in US20090270350A1, “Pyridinone Pyrazole Urea and Pyrimidinone Pyrazole Urea Derivatives” (PFIZER INC., priority 2006, published 2009).

biological target: p38α (Homo sapiens, UniProt Q16539); assay: p38α/MK2 cascade assay; format: biochemical; settings: Table 1; inhibitors preincubated with p38α for 40 minutes; phosphorylation of Hsp27 peptide by MK-2, Caliper LabChip 3000; read-out: p38a/MK2 Cascade 40 min Pre-Incuabtion (% Inhibition): IC50
Method: The ability of compounds to inhibit activated p38α was determined in a p38α/MK-2 cascade assay format. The kinase activity of p38α is determined by its ability to phosphorylate/activate nonactive MK2 (54-400). Activation of MK-2 by p38α is measured by following the phosphorylation of a MK-2 specific peptide, Hsp27 peptide (FITC-KKKALSRQLSVAA). The phosphorylation of the Hsp27 peptide was quantified using the Caliper LabChip 3000. The kinase reactions were carried out in 20 mM HEPES pH 7.5, 10 mM MgCl2, 0.0005% Tween-20, 0.01% BSA, 1 mM DTT, and 2% DMSO. The inhibitors were varied between 1000-0.05 nM, while the Hsp27 peptide substrate, MgATP, and nonactive MK-2 (54-400) were held constant at 0.5 µM, 5 µM, and 1 nM, respectively. Inhibitors were preincubated with p38α for 40 minutes prior to initiating the reaction with peptide, MgATP, and MK-2. The kinase reactions were quenched after 60 minutes by the addition of stop buffer (180 mM HEPES, 30 mM EDTA, and 0.2% Coating Reagent-3).
The above protocol assay was used to determine the IC50 values for some of the compounds in the above Examples.
IC50 values were determined for the compounds listed in Table 2, using the same p38α/MK2 cascade assay used to determine the IC50 values for the compounds in Table 1. The compounds of Table 2 were prepared using methods similar to those listed in the Examples for compounds of Table 1.

Chain of p38α (Q16539 whole entry): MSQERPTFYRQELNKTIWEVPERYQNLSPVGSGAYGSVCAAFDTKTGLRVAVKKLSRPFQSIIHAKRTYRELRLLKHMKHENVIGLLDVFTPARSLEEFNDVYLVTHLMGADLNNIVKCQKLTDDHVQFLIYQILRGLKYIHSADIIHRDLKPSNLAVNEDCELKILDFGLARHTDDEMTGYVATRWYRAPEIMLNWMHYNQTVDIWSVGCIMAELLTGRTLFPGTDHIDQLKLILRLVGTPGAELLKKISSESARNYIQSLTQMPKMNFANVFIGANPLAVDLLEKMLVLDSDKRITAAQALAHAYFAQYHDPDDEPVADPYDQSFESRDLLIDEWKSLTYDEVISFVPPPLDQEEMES

Which IC50 does the source give for `COc1ccc(Cn2c(C)cc(OCc3ccccc3CNC(=O)Nc3cc(C(C)(C)C)nn3-c3ccc(O)c(Cl)c3)c(Cl)c2=O)cc1Cl` [Example 66, 1-[3-tert-butyl-1-(3-chloro-4-hydroxyphenyl)-1H-pyrazol-5-yl]-3-[2-({[3-chloro-1-(3-chloro-4-methoxybenzyl)-6-methyl-2-oxo-1,2-dihydropyridin-4-yl]oxy}methyl)benzyl]urea] here?
Its IC50 is 9.7 nM.

`COc1cccc(Cn2c(C)cc(OCc3ccc(F)cc3CNC(=O)Nc3cc(C(C)(C)C)nn3-c3cccc(OCCO)c3)cc2=O)c1` [Example 37, 1-{3-tert-butyl-1-[3-(2-hydroxyethoxy)phenyl]-1H-pyrazol-5-yl}-3-[5-fluoro-2-({[1-(3-methoxybenzyl)-6-methyl-2-oxo-1,2-dihydropyridin-4-yl]oxy}methyl)benzyl]urea] was tested. Which IC50 did it give?
Its IC50 is 29.3 nM.

How did the IC50 turn out when `COc1ccc(Cn2c(C)cc(OCc3ccccc3CNC(=O)Nc3cc(C4CC4)nn3-c3ccccc3)c(Br)c2=O)cc1` [Example 102, 1-[2-({[3-bromo-1-(4-methoxybenzyl)-6-methyl-2-oxo-1,2-dihydropyridin-4-yl]oxy}methyl)benzyl]-3-(3-cyclopropyl-1-phenyl-1H-pyrazol-5-yl)urea] was run?
The IC50 was 182 nM.

With `COc1ccc(Cn2c(C)cc(OCc3ccccc3CNC(=O)Nc3cc(C(C)(C)C)nn3-c3cccc(OCCO)c3)c(Cl)c2=O)cc1` [Example 57, 1-{3-tert-butyl-1-[3-(2-hydroxyethoxy)phenyl]-1H-pyrazol-5-yl}-3-[2-({[3-chloro-1-(4-methoxybenzyl)-6-methyl-2-oxo-1,2-dihydropyridin-4-yl]oxy}methyl)benzyl]urea] as the compound, how does the IC50 read?
The IC50 was 9.3 nM.

`Cc1ccc(-n2nc(C(C)(C)C)cc2NC(=O)NCc2ccccc2COc2cc(C)n(Cc3ccc(O)cc3)c(=O)c2Br)cc1` [Example 100, 1-[2-({[3-bromo-1-(4-hydroxybenzyl)-6-methyl-2-oxo-1,2-dihydropyridin-4-yl]oxy}methyl)benzyl]-3-[3-tert-butyl-1-(4-methylphenyl)-1H-pyrazol-5-yl]urea] was tested. Which IC50 did it give?
Its IC50 is 4.59 nM.

Which IC50 does the source give for `CCc1c(OCc2ccccc2CNC(=O)Nc2cc(C(C)(C)C)nn2-c2cccc(OC)c2)ncn(Cc2ccc(OC)cc2)c1=O` [Example 115, 1-[3-tert-butyl-1-(3-methoxyphenyl)-1H-pyrazol-5-yl]-3-[2-({[5-ethyl-1-(4-methoxybenzyl)-6-oxo-1,6-dihydropyrimidin-4-yl]oxy}methyl)benzyl]urea] here?
The IC50 was 25.8 nM.

Which IC50 does the source give for `COc1cccc(Cn2c(C)cc(OCc3ccccc3CNC(=O)Nc3cc(C(C)(C)C)nn3-c3ccc(Cl)c(O)c3)c(C)c2=O)c1` [Example 47, 1-[3-tert-butyl-1-(4-chloro-3-hydroxyphenyl)-1H-pyrazol-5-yl]-3-[2-({[1-(3-methoxybenzyl)-3,6-dimethyl-2-oxo-1,2-dihydropyridin-4-yl]oxy}methyl)benzyl]urea] here?
The IC50 was 12.2 nM.

How did the IC50 turn out when `COc1cccc(Cn2c(C)cc(OCc3ccc(F)cc3CNC(=O)Nc3cc(C(C)(C)C)nn3-c3ccc(O[Si](C)(C)C(C)(C)C)c(Cl)c3)c(Cl)c2=O)c1` [Example 42, 1-[3-tert-butyl-1-(4-{[tert-butyl(dimethyl)silyl]oxy}-3-chlorophenyl)-1H-pyrazol-5-yl]-3-[2-({[3-chloro-1-(3-methoxybenzyl)-6-methyl-2-oxo-1,2-dihydropyridin-4-yl]oxy}methyl)-5-fluorobenzyl]urea] was run?
Its IC50 is 116 nM.

With `Cc1cc(OCc2ccccc2CNC(=O)Nc2cc(C(C)(C)C)nn2-c2cccc(Cl)c2)c(Br)c(=O)n1Cc1ccccc1` [Example 108, 1-(2-{[(1-benzyl-3-bromo-6-methyl-2-oxo-1,2-dihydropyridin-4-yl)oxy]methyl}benzyl)-3-[3-tert-butyl-1-(3-chlorophenyl)-1H-pyrazol-5-yl]urea] as the compound, how does the IC50 read?
The IC50 was 3.71 nM.

`COc1ccc(Cn2c(C)cc(OCc3ccccc3CNC(=O)Nc3cc(C(C)(C)C)nn3-c3ccc(O)cc3)c(Cl)c2=O)cc1Cl` [Example 64, 1-[3-tert-butyl-1-(4-hydroxyphenyl)-1H-pyrazol-5-yl]-3-[2-({[3-chloro-1-(3-chloro-4-methoxybenzyl)-6-methyl-2-oxo-1,2-dihydropyridin-4-yl]oxy}methyl)benzyl]urea] was tested. Which IC50 did it give?
The IC50 was 7.5 nM.

same assay, conditions: Table 2; same p38α/MK2 cascade assay; 40 minutes preincubation; read-out: p38a/MK2 Cascade 40 min Pre-Incuabtion (% Inhibition): IC50

For `COc1ccccc1Cn1c(C)cc(OCc2ccccc2CNC(=O)Nc2cc(C(C)(C)SC)nn2-c2cccc(O)c2)c(Cl)c1=O` [Example 276, 1-[2-({[3-chloro-1-(2-methoxybenzyl)-6-methyl-2-oxo-1,2-dihydropyridin-4-yl]oxy}methyl)benzyl]-3-{1-(3-hydroxyphenyl)-3-[1-methyl-1-(methylthio)ethyl]-1H-pyrazol-5-yl}ure], which IC50 is on record?
The IC50 was 20.5 nM.

How did the IC50 turn out when `CNC(=O)c1ccc(C)c(-n2c(C)cc(OCc3ccc(F)cc3CNC(=O)Nc3cc(C(C)(C)C)nn3-c3ccc(C)cc3)c(Cl)c2=O)c1` [Example 206, 3-{4-[(2-{[({[3-tert-butyl-1-(4-methylphenyl)-1H-pyrazol-5-yl]amino}carbonyl)amino]methyl}-4-fluorobenzyl)oxy]-3-chloro-6-methyl-2-oxopyridin-1(2H)-yl}-N,4-dimethylbenzamide] was run?
The IC50 was 3.71 nM.

How did the IC50 turn out when `Cc1cc(OCc2ccccc2CNC(=O)Nc2cc(C(C)(C)C)nn2-c2ccc(O)c(Cl)c2)c(Cl)c(=O)n1Cc1cccc(CNC(=O)CO)c1` [Example 261, N-[3-({4-[(2-{[({[3-tert-butyl-1-(3-chloro-4-hydroxyphenyl)-1H-pyrazol-5-yl]amino}carbonyl)amino]methyl}benzyl)oxy]-3-chloro-6-methyl-2-oxopyridin-1(2H)-yl}methyl)benzyl]-2-hydroxyacetamide] was run?
The IC50 was 8.9 nM.

For `Cc1ccc(C(=O)NCC(N)=O)cc1-n1c(C)cc(OCc2ccccc2CNC(=O)Nc2cc(C(C)(C)C)nn2-c2ccc(O)cc2)c(Cl)c1=O` [Example 219, N-(2-amino-2-oxoethyl)-3-{4-[(2-{[({[3-tert-butyl-1-(4-hydroxyphenyl)-1H-pyrazol-5-yl]amino}carbonyl)amino]-methyl}benzyl)oxy]-3-chloro-6-methyl-2-oxopyridin-1(2H)-yl}-4-methylbenzamide], which IC50 is on record?
Its IC50 is 0.9 nM.

`COC(=O)c1ccc(C)c(-n2c(C)cc(OCc3ccccc3CNC(=O)Nc3cc(C(C)(C)C)nn3-c3ccc(Cl)c(O)c3)c(Cl)c2=O)c1` [Example 221, methyl 3-{4-[(2-{[({[3-tert-butyl-1-(4-chloro-3-hydroxy-phenyl)-1H-pyrazol-5-yl]amino}carbonyl)amino]-methyl}-benzyl)oxy]-3-chloro-6-methyl-2-oxopyridin-1(2H)-yl}-4-methylbenzoate] was tested. Which IC50 did it give?
Its IC50 is 10.5 nM.

With `COc1ccc(Cn2c(C)cc(OCc3ccccc3CNC(=O)Nc3cc(C(C)(C)C)nn3-c3ccccc3)c(C)c2=O)c(OC)c1` [Example 243, 1-(3-tert-butyl-1-phenyl-1H-pyrazol-5-yl)-3-[2-({[1-(2,4-dimethoxybenzyl)-3,6-dimethyl-2-oxo-1,2-dihydropyridin-4-yl]oxy}methyl)benzyl]urea] as the compound, how does the IC50 read?
Its IC50 is 9.54 nM.

`COc1ccc(Cn2c(C)cc(OCc3ccccc3CNC(=O)Nc3cc(C(C)(C)C)nn3-c3ccc(O)cc3)c(C)c2=O)cc1C#N` [Example 253, 1-[3-tert-butyl-1-(4-hydroxyphenyl)-1H-pyrazol-5-yl]-3-[2-({[1-(3-cyano-4-methoxybenzyl)-3,6-dimethyl-2-oxo-1,2-dihydropyridin-4-yl]oxy}methyl)benzyl]urea] was tested. Which IC50 did it give?
The IC50 was 8.3 nM.

For `CSc1ccccc1Cn1c(C)cc(OCc2ccccc2CNC(=O)Nc2cc(C(C)(C)C)nn2-c2ccc(O)cc2)c(Cl)c1=O` [Example 268, 1-[3-tert-butyl-1-(4-hydroxyphenyl)-1H-pyrazol-5-yl]-3-{2-[({3-chloro-6-methyl-1-[2-(methylthio)benzyl]-2-oxo-1,2-dihydro-pyridin-4-yl}oxy)methyl]benzyl}urea], which IC50 is on record?
Its IC50 is 23.6 nM.

`COc1ccc(Cn2c(C)cc(OCc3ccc(F)cc3CNC(=O)Nc3cc(C(C)(C)C)nn3-c3ccc(Cl)c(O)c3)c(Cl)c2=O)cc1` [Example 202, 1-[3-tert-butyl-1-(4-chloro-3-hydroxyphenyl)-1H-pyrazol-5-yl]-3-[2-({[3-chloro-1-(4-methoxy-benzyl)-6-methyl-2-oxo-1,2-dihydropyridin-4-yl]oxy}methyl)-5-fluorobenzyl]urea] was tested. Which IC50 did it give?
Its IC50 is 3.1 nM.

How did the IC50 turn out when `CSc1ccccc1Cn1c(C)cc(OCc2ccccc2CNC(=O)Nc2cc(C(C)(C)C)nn2-c2ccc(Cl)c(O)c2)c(C)c1=O` [Example 277, 1-[3-tert-butyl-1-(4-chloro-3-hydroxyphenyl)-1H-pyrazol-5-yl]-3-{2-[({3,6-dimethyl-1-[2-(methylthio)benzyl]-2-oxo-1,2-dihydropyridin-4-yl}oxy)methyl]benzyl}urea] was run?
Its IC50 is 131 nM.

`COCCNC(=O)c1ccc(C)c(-n2c(C)cc(OCc3ccccc3CNC(=O)Nc3cc(C(C)(C)C)nn3-c3cccc(OCCO)c3)c(Cl)c2=O)c1` [Example 238, 3-[4-{[2-({[({3-tert-butyl-1-[3-(2-hydroxyethoxy)phenyl]-1H-pyrazol-5-yl}amino)carbonyl]amino}methyl)benzyl]oxy}-3-chloro-6-methyl-2-oxopyridin-1(2H)-yl]-N-(2-methoxyethyl)-4-methylbenzamide] was tested. Which IC50 did it give?
The IC50 was 2 nM.
